# US7273604B2, “Anti-asthmatic combinations comprising surface active phospholipids” (Britannia Pharmaceuticals Limited, priority 1998, dated 2007)
# Where “and” joins values, the source holds several entries; their conditions need not be identical. Equal values may be shown once.
# System: bronchial epithelium
# Test: Binding (adsorption) of 14C-labelled DPPC to bronchial epithelium sections, liquid scintillation counting
# Design: species or system porcine
# Procedure: • L-α-Phosphatidylcholine, 1,2-di[1-^14 C]palmitoyl in Toluene:Ethanol (1:1 v/v), 114 mCi/mmol, 50 μCi in 2 mL (CFA6O4 B36, Amersham) • L-α-Phosphatidylcholine, dipalmitoyl (C16:0) (P-6267, Sigma) • DL-α-Phosphatidyl-DL-glycerol, dipalmitoyl (C16:0) (P-5650, Sigma) • Egg Phosphatidylglycerol (Batch 24756, Macfarlan Smith, Ltd.) • Sodium Chloride, 0.9%, B.P. (Baxter Healthcare) • Calcium Chloride (C-4901, Sigma) • Toluene (T-4428, Sigma) • Ethanol, AnalaR (10107.7Y, BDH) • NCS-II Tissue Solubilizer, 0.5N Solution (NNCS-502), Amersham) • OCS Organic Counting Scintillant (NOCS104, Amersham) In preparation for the dispersions in which the epithelium would be incubated, stock solutions of the phospholipid components were prepared on the first day of Run 1. These solutions were as follows: • L-α-DPPC, 2.4 mg. mL^−1 in toluene:ethanol, 1:1 • DL-α-DPPG, 3.0 mg. mL^−1 in toluene:ethanol, 1:1 • Egg PG, 3.0 mg. mL^−1 in toluene:ethanol, 1:1 All of the above solutions were stored at 4° C. in glass vials, the threads of which were sealed with teflon tape to minimise evaporation of the solvent. Each glass vial was then placed inside a second, tightly capped glass vial. These solutions were used for each of the five runs in the trial. A solution of 200 mg. L^−1 CaCl^2 in 0.9% saline was also prepared on the first day of Run 2 and was used in each of Runs 2 to 5. […]
# Four dispersions were prepared on the first day of each run. […] In addition, Group 2 received 5.5 μL (16.5 μg) DL-α-DPPG, while the same quantity of egg PG was added to Group 3. […] When the number of sections was increased, the volumes of all components were increased accordingly, keeping all quantities in the same proportions as above. […]
SMILES,"binding of DPPC to bronchial epithelium (in words) (DPPC in the presence of the named phosphatidyl glycerol, 1:1, compared with DPPC only)","Total DPPC Adsorbed to Bronchial Epithelium (individual sections, incubation at 37° C. for 24 h in 0.9% saline dispersion, rinsed 20 times)","Total DPPC Adsorbed to Bronchial Epithelium, Mean (mean of n 10 sections, incubation at 37° C. for 24 h in 0.9% saline dispersion, rinsed 20 times) [μg/cm^2]"
"CCCCCCCCCCCCCCCC(=O)OCC(COP(=O)(O)OCC(O)CO)OC(=O)CCCCCCCCCCCCCCC (racemic) [DPPG, DL-α-Phosphatidyl-DL-glycerol, dipalmitoyl (C16:0)]",increased binding of DPPC to bronchial epithelium,–,–
"CCCCCCCCCCCCCCCC(=O)OC[C@H](COP(=O)([O-])OCC[N+](C)(C)C)OC(=O)CCCCCCCCCCCCCCC [DPPC, dipalmitoyl phosphatidyl choline]",–,0.280 μg/cm^2 and 0.528 μg/cm^2 and 0.192 μg/cm^2 and 0.340 μg/cm^2 and 0.321 μg/cm^2 and 0.341 μg/cm^2 and 0.299 μg/cm^2 and 0.219 μg/cm^2 and 0.116 μg/cm^2 and 0.276 μg/cm^2,0.291
